# Data: ChEMBL document CHEMBL5518235, “Identification of Novel Series of Potent and Selective Relaxin Family Peptide Receptor 1 (RXFP1) Agonists” (J Med Chem, 2024)
# Legend:
# [1] = Lipophilicity, logD of the compound in 1-octanol and phosphate buffer at pH 7.4 incubated for 3 hrs by shake flask method based LC/MS/MS analysis; format: physicochemical; details: 1-octanol/phosphate buffer, pH 7.4
# [2] = Metabolic stability in cryopreserved human hepatocytes assessed as unbound intrinsic clearance measured per 10^6 cells at 1 uM measured after 120 mins by LC-MS/MS analysis; format: ADME, cell-based, Hepatocyte; details: 2 h
# Relaxin receptor 1 = molecular target: T1, Relaxin receptor 1 (Homo sapiens, UniProt Q9HBX9); assay: Agonist activity at human RXFP1 expressed in T-Rex-CHO-K1 cells assessed as stimulation of cAMP production incubated for 45 mins by HTRF assay; format: functional, cell-based
# T1 sequence (Q9HBX9 whole entry): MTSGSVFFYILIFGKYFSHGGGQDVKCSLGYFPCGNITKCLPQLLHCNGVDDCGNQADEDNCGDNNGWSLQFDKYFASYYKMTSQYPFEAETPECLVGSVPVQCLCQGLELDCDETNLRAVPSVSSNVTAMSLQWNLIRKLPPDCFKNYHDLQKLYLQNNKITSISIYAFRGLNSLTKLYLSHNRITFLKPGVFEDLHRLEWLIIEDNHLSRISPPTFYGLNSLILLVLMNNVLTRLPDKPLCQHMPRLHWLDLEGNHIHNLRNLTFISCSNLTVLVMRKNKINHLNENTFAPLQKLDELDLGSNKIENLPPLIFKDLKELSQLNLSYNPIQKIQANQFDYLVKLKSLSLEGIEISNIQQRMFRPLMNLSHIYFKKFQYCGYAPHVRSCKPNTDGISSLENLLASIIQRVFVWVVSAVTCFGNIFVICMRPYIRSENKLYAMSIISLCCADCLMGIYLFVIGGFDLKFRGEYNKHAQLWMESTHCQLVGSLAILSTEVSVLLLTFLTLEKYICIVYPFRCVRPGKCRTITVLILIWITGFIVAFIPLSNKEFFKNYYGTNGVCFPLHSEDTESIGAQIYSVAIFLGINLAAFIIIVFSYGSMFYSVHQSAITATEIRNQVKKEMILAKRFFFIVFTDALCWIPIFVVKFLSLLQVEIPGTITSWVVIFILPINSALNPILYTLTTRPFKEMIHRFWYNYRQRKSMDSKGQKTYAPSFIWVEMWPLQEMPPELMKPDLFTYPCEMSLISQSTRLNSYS
# [3] = molecular target: T2, Relaxin receptor 1 (Homo sapiens) (UniProt Q9HBX9); assay: Agonist activity at human RXFP1 expressed in T-Rex-CHO-K1 cells assessed as stimulation of cAMP production by measuring maximal efficacy at 50 uM incubated for 45 mins by HTRF assay relative to control; format: functional, cell-based
# T2 sequence (whole entry): T1 sequence (Q9HBX9 whole entry)
# [4] = Metabolic stability in cryopreserved human hepatocytes assessed as intrinsic clearance measured per 10^6 cells at 1 uM after 120 mins by LC-MS/MS analysis; format: ADME, cell-based, Hepatocyte; details: cryopreserved hepatocytes, read-out: CLH
# [5] = Metabolic stability in human liver microsomes assessed as intrinsic clearance at 1 uM incubated for 30 mins in presence of NADPH by LC-MS/MS analysis; format: ADME, Microsome; details: liver microsomes, read-out: CLH
# [6] = Metabolic stability in human liver microsomes assessed as unbound intrinsic clearance at 1 uM incubated for 30 mins in presence of NADPH by LC-MS/MS analysis; format: ADME, Microsome; details: 0.5 h
SMILES,logD at 3 h [1],CL free [2],EC50 (Relaxin receptor 1),Emax ([3]; filed as agonist),hepatocyte CLint at 1 µM [4],microsomal CLint at 1 µM [5],CL free [6],Emax [3]
COc1cc(F)c(C(=O)N2CCC(C)(C(=O)O)CC2)cc1C(=O)N[C@H]1[C@@H](C(=O)Nc2cccc(S(=O)(=O)C(F)(F)F)c2)[C@@H]2C=C[C@H]1C2 (racemic),1.9,6.3 µL/min,3.16 µM,111%,3 µL/min/1e6 cells,–,–,–
COc1cc(F)c(-c2ccc(C(=O)O)cc2)cc1C(=O)N[C@H]1[C@@H](C(=O)Nc2cccc(S(=O)(=O)C(F)(F)F)c2)[C@@H]2C=C[C@H]1C2,–,–,–,99%,–,–,–,–
COc1cc(F)c(O[C@H]2CC[C@@H](C(=O)O)CC2)cc1C(=O)N[C@@H]1[C@H](C(=O)Nc2ccc(F)c(C(F)(F)F)c2)[C@H]2C=C[C@@H]1C2,3.6,42 µL/min,2.57 µM,107%,4.8 µL/min/1e6 cells,–,–,–
COc1cc(F)c(OCCCC(=O)O)cc1C(=O)N[C@H]1[C@@H](C(=O)Nc2cccc(S(=O)(=O)C(F)(F)F)c2)[C@@H]2C=C[C@H]1C2 (racemic),2.5,51 µL/min,1.58 µM,114%,13 µL/min/1e6 cells,–,–,–
COc1ccccc1C(=O)N[C@H]1[C@@H](C(=O)Nc2cccc(S(=O)(=O)C(F)(F)F)c2)[C@H]2C=C[C@@H]1C2 (racemic),3.5,–,> 50.1 µM,–,–,140 µL/min/mg,0.35 10^3uL/min/mg,37%
COc1cc(F)c(-c2ncc(C(=O)O)s2)cc1C(=O)N[C@H]1[C@@H](C(=O)Nc2cccc(S(=O)(=O)C(F)(F)F)c2)[C@@H]2C=C[C@H]1C2 (racemic),1.7,–,0.631 µM,111%,–,13 µL/min/mg,65 µL/min/mg,–
COc1cc(F)c(O[C@H]2CC[C@@](C)(C(=O)O)CC2)cc1C(=O)N[C@@H]1C[C@@H](OC)C[C@@H]1C(=O)Nc1cccc(S(=O)(=O)C(F)(F)F)c1,3,26 µL/min,0.0251 µM,110%,6.2 µL/min/1e6 cells,–,–,–
COc1cc(F)ccc1C(=O)N[C@@H]1[C@H](C(=O)Nc2cccc(S(=O)(=O)C(F)(F)F)c2)[C@H]2C=C[C@@H]1C2 (racemic),> 3,–,1.58 µM,113%,–,> 300 µL/min/mg,> 14 10^3uL/min/mg,–
COc1cc(F)c(O[C@H]2CC[C@@](C)(C(=O)O)CC2)cc1C(=O)N[C@@H]1CCC[C@@H]1C(=O)Nc1ccc(F)c(S(F)(F)(F)(F)F)c1,4.35,283 µL/min,0.00316 µM,105%,13 µL/min/1e6 cells,–,–,–
COc1cc(F)c(O[C@H]2CC[C@@H](C(=O)O)CC2)cc1C(=O)N[C@@H]1[C@H]2CC[C@H](C2)[C@@H]1C(=O)Nc1cccc(C(F)F)c1,2.8,51 µL/min,–,104%,11 µL/min/1e6 cells,–,–,–
COc1cc(F)c(O[C@H]2CC[C@@](C)(C(=O)O)CC2)cc1C(=O)N[C@@H]1COC[C@@H]1C(=O)Nc1cccc(S(=O)(=O)C(F)(F)F)c1,2.6,23 µL/min,0.126 µM,104%,6.3 µL/min/1e6 cells,–,–,–
COc1cc(F)c(Oc2ccc(C(=O)O)cc2)cc1C(=O)N[C@H]1[C@@H](C(=O)Nc2cccc(S(=O)(=O)C(F)(F)F)c2)[C@@H]2C=C[C@H]1C2 (racemic),3.6,480 µL/min,0.316 µM,103%,7.2 µL/min/1e6 cells,–,–,–
COc1cc(F)c(O[C@H]2CC[C@@H](C(=O)O)CC2)cc1C(=O)N[C@@H]1[C@H]2CC[C@H](C2)[C@@H]1C(=O)Nc1ccncc1,1.6,–,> 50.1 µM,42%,–,–,–,–
